For 19 compounds, IC50 results are on record in US12240862B2, “Inhibitors of peptidylarginine deiminases” (Gilead Sciences, Inc., priority 2020, dated 2025).

T1 sequence (Q9UM07 2-663): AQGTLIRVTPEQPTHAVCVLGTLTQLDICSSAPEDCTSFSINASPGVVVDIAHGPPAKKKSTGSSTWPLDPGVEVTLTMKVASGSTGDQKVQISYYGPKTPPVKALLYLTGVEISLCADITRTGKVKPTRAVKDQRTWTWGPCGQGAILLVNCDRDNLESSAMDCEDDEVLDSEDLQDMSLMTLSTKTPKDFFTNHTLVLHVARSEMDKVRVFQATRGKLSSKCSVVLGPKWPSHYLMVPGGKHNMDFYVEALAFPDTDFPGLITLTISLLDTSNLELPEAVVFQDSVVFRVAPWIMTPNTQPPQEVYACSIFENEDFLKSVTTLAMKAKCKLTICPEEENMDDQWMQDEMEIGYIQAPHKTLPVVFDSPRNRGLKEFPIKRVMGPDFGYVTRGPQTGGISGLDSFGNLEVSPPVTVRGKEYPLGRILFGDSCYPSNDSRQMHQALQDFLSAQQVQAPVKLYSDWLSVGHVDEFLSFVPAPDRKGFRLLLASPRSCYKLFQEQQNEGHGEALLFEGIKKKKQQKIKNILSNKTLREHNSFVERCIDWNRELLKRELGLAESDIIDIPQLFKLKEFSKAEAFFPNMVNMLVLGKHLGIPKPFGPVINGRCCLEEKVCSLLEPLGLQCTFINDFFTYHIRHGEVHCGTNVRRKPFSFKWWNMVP

This assay concerns the target T1, human PAD4 (Homo sapiens, UniProt Q9UM07).
T1 construct: human PAD4 (NM_012387), A2P663, was PCR amplified; His-SUMO (N, cleaved yes); made in house; host or cells: E. coli BL21(DE3)
Nature of the assay: In vitro PAD4 BAEE biochemical assay. Conditions: human PAD4, BAEE substrate; 5 nM PAD4, 2 mM calcium chloride, 3 mM BAEE; geometric mean of multiple experiments. The method, boiled down:
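Ammonia release from BAEE deimination monitored by o-phthalaldehyde amine coupling (1 h, 25 °C) after EDTA stop. Final conditions: 5 nM tag-free recombinant human PAD4 (E. coli), 2 mM CaCl2, 3 mM BAEE, pH 7.6 MOPS with DTT; 30 min compound preincubation, then 2 h reaction at 25 °C.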
With `CCc1ccc2cc(-c3nc4cc(C(=O)N5[C@H]6CC[C@@H]5[C@H](N)C6)cc(OC)n4c3C)n(CC3CC3)c2n1` [Example 584, [(1~{R},2~{R},4~{S})-2-amino-7-azabicyclo [2.2.1]heptan-7-yl]-[2-[1-(cyclopropylmethyl)-6-ethylpyrrolo[2,3-b]pyridin-2-yl]-5-methoxy-3-methylimidazo[1,2-a]pyridin-7-yl]methanone], the IC50 was 84.5 nM.
The value for `COc1cc(C(=O)N2C[C@@H](N)[C@H](F)C2)cc2nc(-c3cc4ccc(N(C(F)F)S(C)(=O)=O)nc4n3CC3CC3)c(C)n12` [Example 280, ~{N}-[2-[7-[(3~{R}, 4~{R})-3-amino-4-fluoropyrrolidine-1-carbonyl]-5-methoxy-3-methylimidazo [1,2-a]pyridin-2-yl]-1-(cyclopropylmethyl)pyrrolo[2,3-b]pyridin-6-yl]-~{N}-(difluoromethyl) methanesulfonamide] was 33800 nM; that for `COc1cc(C(=O)N2[C@H]3CC[C@@H]2[C@H](N)C3)cc2nc(-c3cc4ccc(-c5cncc(F)c5C)nc4n3CC3CC3)c(C)n12` [Example 564, [(1~{R},2~{R},4~{S})-2-amino-7-azabicyclo [2.2.1]heptan-7-yl]-[2-[1-(cyclopropylmethyl)-6-(5-fluoro-4-methylpyridin-3-yl)pyrrolo [2,3-b]pyridin-2-yl]-5-methoxy-3-methylimidazo[1,2-a]pyridin-7-yl]methanone] was 332 nM.
The value for `COc1cc(C(=O)N2[C@H]3CC[C@@H]2[C@H](N)C3)cc2nc(-c3cc4ccc(C5CCCN(C(=O)N6CCCC6)C5)nc4n3CC3CC3)c(C)n12` (stereo partly shown) [Example 518, [(1~{R},2~{R},4~{S})-2-amino-7-azabicyclo [2.2.1]heptan-7-yl]-[2-[1-(cyclopropylmethyl)-6-[1-(pyrrolidine-1-carbonyl)piperidin-3-yl]pyrrolo [2,3-b]pyridin-2-yl]-5-methoxy-3-methylimidazo [1,2-a]pyridin-7-yl] methanone] was 344 nM; that for `CCc1ccc2cc(-c3nc4cc(C(=O)N5CC6(CNCCO6)C5)cc(OC)n4c3C)n(CC3CC3)c2n1` [Example 595, [2-[1-(cyclopropylmethyl)-6-ethylpyrrolo[2,3-b]pyridin-2-yl]-5-methoxy-3-methylimidazo[1,2-a]pyridin-7-yl]-(5-oxa-2,8-diazaspiro[3.5]nonan-2-yl) methanone] was 31500 nM; that for “~{N}-[2-[7-[(3~{S}, 4~{R})-3-amino-4- hydroxypiperidine-1- carbonyl]-3-ethyl- 5-methoxyimidazo[1,2- a]pyridin-2-yl]-1- (cyclopropylmethyl)pyrrolo [2,3-b]pyridin-6-yl]-~{N}- (difluoromethyl) methanesulfonamide [Example 400]” was 847 nM.
The figure for `COc1cc(C(=O)N2[C@@H]3CC[C@H]2C[C@@H](N)C3)cc2nc(-c3cc4ccc(N(C(F)F)S(C)(=O)=O)nc4n3CC3CC3)c(C)n12` [Example 326, ~{N}-[2-[7-[(1~{R}, 5~{S})-3-amino-8-azabicyclo[3.2.1]octane-8-carbonyl]-5-methoxy-3-methylimidazo[1,2-a]pyridin-2-yl]-1-(cyclopropylmethyl)pyrrolo[2,3-b]pyridin-6-yl]-~{N}-(difluoromethyl) methanesulfonamide] is 3560 nM; for `COc1cc(C(=O)N2[C@H]3CC[C@@H]2[C@H](N)C3)cc2nc(-c3cc4ccc([C@@H](C)NC(=O)C56CC(C#N)(C5)C6)nc4n3CC3CC3)c(C3CC3)n12` [Example 140, ~{N}-[(1~{R})-1-[2-[7-[(1~{R},2~{R},4~{S})-2-amino-7-azabicyclo[2.2.1]heptane-7-carbonyl]-3-cyclopropyl-5-methoxyimidazo[1,2-a]pyridin-2-yl]-1-(cyclopropylmethyl)pyrrolo[2,3-b]pyridin-6-yl]ethyl]-3-cyanobicyclo[1.1.1]pentane-1-carboxamide] it is 118 nM; for `COc1cc(C(=O)N2C[C@H]3C[C@H](OC)[C@@H]2[C@@H]3N)cc2nc(-c3cc4ccc(N(C(F)F)S(C)(=O)=O)nc4n3CC3CC3)c(C)n12` [Example 372, N-[2-[7-[(1S,4R,6S,7R)-7-amino-6-methoxy-2-azabicyclo[2.2.1]heptane-2-carbonyl]-5-methoxy-3-methyl-imidazo [1,2-a]pyridin-2-yl]-1-(cyclopropylmethyl)pyrrolo [2,3-b]pyridin-6-yl]-N-(difluoromethyl) methanesulfonamide] it is 2000 nM.
With `COc1cc(C(=O)N2C[C@H]3CCN[C@H]3C2)cc2nc(-c3cc4ccc([C@@H](C)NC(=O)C56CC(F)(C5)C6)nc4n3CC3CC3)c(C)n12` [Example 21], the IC50 was found to be 2060 nM.
With `COc1cc(C(=O)N2CC[C@@H](OC)[C@@H](N)C2)cc2nc(-c3cc4ccc(N(C(F)F)S(C)(=O)=O)nc4n3CC3CC3)c(C)n12` [Example 335, ~{N}-[2-[7-[(3~{S}, 4~{R})-3-amino-4-methoxypiperidine-1-carbonyl]-5-methoxy-3-methylimidazo [1,2-a]pyridin-2-yl]-1-(cyclopropylmethyl)pyrrolo [2,3-b]pyridin-6-yl]-~{N}-(difluoromethyl) methanesulfonamide], the IC50 worked out at 178 nM.
`COc1cc(C(=O)N2C[C@@H]3C[C@]3(N)C2)cc2nc(-c3cc4ccc([C@@H](C)NC(=O)C56CC(F)(C5)C6)nc4n3CC3CC3)c(C)n12` [Example 25, ~{N}-[(1~{R})-1-[2-[7-[(1~{R},5~{S})-1-amino-3-azabicyclo [3.1.0]hexane-3-carbonyl]-5-methoxy-3-methylimidazo [1,2-a]pyridin-2-yl]-1-(cyclopropylmethyl)pyrrolo[2,3-b]pyridin-6-yl]ethyl]-3-fluorobicyclo[1.1.1] pentane-1-carboxamide]: the IC50 is 4450 nM.
In the case of `COc1cc(C(=O)N2CCC[C@@H](N)C2)cc2nc(-c3cc4ccc([C@@H](C)N5CCOC5=O)nc4n3CC3CC3)c(C)n12` [Example 278, 3-[(1~{R})-1-[2-[7-[(3~{R})-3-aminopiperidine-1-carbonyl]-5-methoxy-3-methylimidazo [1,2-a]pyridin-2-yl]-1-(cyclopropylmethyl)pyrrolo [2,3-b]pyridin-6-yl]ethyl]-1,3-oxazolidin-2-one], the IC50 amounted to 144 nM.
The value for `COc1cc(C(=O)N2[C@H]3CC[C@@H]2[C@H](N)C3)cc2nc(-c3cc4ccc([C@@H](C)NC(=O)Nc5ccc(F)cc5F)nc4n3CC3CC3)c(C)n12` [Example 198, 1-[(1~{R})-1-[2-[7-[(1~{R},2~{R},4~{S})-2-amino-7-azabicyclo[2.2.1]heptane-7-carbonyl]-5-methoxy-3-methylimidazo [1,2-a]pyridin-2-yl]-1-(cyclopropylmethyl)pyrrolo [2,3-b]pyridin-6-yl]ethyl]-3-(2,4-difluorophenyl)urea] was 185 nM; that for `COc1cc(C(=O)N2[C@H]3CC[C@@H]2[C@H](N)C3)cc2nc(-c3cc4ccc([C@@H](C)NC(=O)N5CC(O)C5)nc4n3CC3CC3)c(C)n12` [Example 227, ~{N}-[(1~{R})-1-[2-[7-[(1~{R},2~{R},4~{S})-2-amino-7-azabicyclo[2.2.1]heptane-7-carbonyl]-5-methoxy-3-methylimidazo [1,2-a]pyridin-2-yl]-1-(cyclopropylmethyl)pyrrolo [2,3-b]pyridin-6-yl]ethyl]-3-hydroxyazetidine-1-carboxamide] was 65.2 nM; that for `COc1cc(C(=O)N2[C@H]3CC[C@@H]2[C@H](N)C3)cc2nc(-c3cc4ccc([C@@H](C)NC(=O)[C@H]5CC5(F)F)nc4n3CC3CC3)c(C)n12` [Example 131, (1~{R})-~{N}-[(1~{R})-1-[2-[7-[(1~{R},2~{R},4~{S})-2-amino-7-azabicyclo[2.2.1]heptane-7-carbonyl]-5-methoxy-3-methylimidazo [1,2-a]pyridin-2-yl]-1-(cyclopropylmethyl)pyrrolo [2,3-b]pyridin-6-yl]ethyl]-2,2-difluorocyclopropane-1-carboxamide] was 30.4 nM.
On to `COc1cc(C(=O)N2[C@H]3CC[C@@H]2[C@H](N)C3)cc2nc(-c3cc4ccc([C@@H](C)NC(=O)C56CC(C(F)(F)F)(C5)C6)nc4n3CC3CC3)c(C)n12` [Example 157, ~{N}-[(1~{R})-1-[2-[7-[(1~{R},2~{R},4~{S})-2-amino-7-azabicyclo[2.2.1]heptane-7-carbonyl]-5-methoxy-3-methylimidazo [1,2-a]pyridin-2-yl]-1-(cyclopropylmethyl)pyrrolo [2,3-b]pyridin-6-yl]ethyl]-3-(trifluoromethyl)bicyclo [1.1.1]pentane-1-carboxamide], for which the IC50 stood at 133 nM.
The value for `COc1cc(C(=O)N2CCC[C@@H](N)C2)cc2nc(-c3cc4ccc(-c5cccnc5C)nc4n3CC3CC3)c(C)n12` [Example 604, [(3~{R})-3-aminopiperidin-1-yl]-[2-[1-(cyclopropylmethyl)-6-(2-methylpyridin-3-yl)pyrrolo[2,3-b]pyridin-2-yl]-5-methoxy-3-methylimidazo[1,2-a]pyridin-7-yl]methanone] was 427 nM; that for `COc1cc(C(=O)N2[C@H]3CC[C@@H]2[C@H](N)C3)cc2nc(-c3cc4ccc([C@@H](C)NC(=O)C5(C)CC5(F)F)nc4n3CC3CC3)c(C)n12` (stereo partly shown) [Example 102, ~{N}-[(1~{R})-1-[2-[7-[(1~{R},2~{R},4~{S})-2-amino-7-azabicyclo[2.2.1]heptane-7-carbonyl]-5-methoxy-3-methylimidazo [1,2-a]pyridin-2-yl]-1-(cyclopropylmethyl)pyrrolo [2,3-b]pyridin-6-yl]ethyl]-2,2-difluoro-1-methylcyclopropane-1-carboxamide] was 46.6 nM.
